A short description of series [1]: Stability of the solid form on storage. In kind it is physicochemical. The following applies: prolonged storage.
The subject of another series is Phytophthora infestans. In kind it is in vivo. The settings on record: tomato, protective, 50 g a.i./liter SC formulation, evaluation 3 days after inoculation.
Another series deals with Plasmopara viticola. Kind of series: Plasmopara test (vine)/protective. The settings on record: protective, 50 g a.i./liter SC formulation, evaluation 6 days after inoculation. In kind it is in vivo. The text has this: To produce a suitable active ingredient preparation, formulations are suspended with water and diluted to the desired concentration. In the present case, both the known amorphous modification of the substance 2-{3-[2-(1-{[3,5-bis(difluoromethyl)-1H-pyrazol-1-yl]acetyl}piperidin-4-yl)-1,3-thiazol-4-yl]-4,5-dihydro-1,2-oxazol-5-yl}-3-chlorophenylmethanesulphonate (form A), as well as the inventive crystalline form of the substance 2-{3-[2-(1-{[3,5-bis(difluoromethyl)-1H-pyrazol-1-yl]acetyl}piperidin-4-yl)-1,3-thiazol-4-yl]-4,5-dihydro-1,2-oxazol-5-yl}-3-chlorophenylmethanesulphonate (form B) are used as 50 g a.i./liter of SC formulation.
To test for protective effectiveness, young plants are sprayed with the active ingredient preparation at the stated application rate. After initial drying of the spray coating, the plants are inoculated with an aqueous spore suspension of Plasmopara viticola and then remain in an incubation cabin for 1 day at approx. 20° C. and 100% relative atmospheric humidity. The plants are then placed in a greenhouse at approx. 21° C. and approx. 90% atmospheric humidity for 4 days. The plants are then moistened and placed in an incubation cabin for 1 day.
Evaluation is carried out 6 days after the inoculation. 0% here means an efficacy which corresponds to that of the control, whereas an efficacy of 100% means that no infection is observed.

[2] abbreviates: application rate 0.05 ppm active ingredient.
Where [3] appears, read: application rate 0.1 ppm active ingredient.
Where [4] appears, read: application rate 0.2 ppm active ingredient.

Where two headings read alike, the source gives them in different places.

This note sets out measurements from patent US9783534B2 (priority 2013, dated 2017).

With `CS(=O)(=O)Oc1cccc(Cl)c1C1CC(c2csc(C3CCN(C(=O)Cn4nc(C(F)F)cc4C(F)F)CC3)n2)=NO1` (single isomer, unassigned) [Form B, 2-{3-[2-(1-{[3,5-bis(difluoromethyl)-1H-pyrazol-1-yl]acetyl}piperidin-4-yl)-1,3-thiazol-4-yl]-4,5-dihydro-1,2-oxazol-5-yl}-3-chlorophenylmethanesulphonate], in series [1], the “thermodynamic stability / conversion into another form” value is “not converted into another form even on prolonged storage”. Besides, the Efficacy in % in the series on Phytophthora infestans (setting [2]) was 40%; in the series on Phytophthora infestans (setting [3]), 60%; with Phytophthora infestans (setting [4]) it was 76%; in the series on Plasmopara viticola (setting [2]), 0%; with Plasmopara viticola (setting [3]), 35%; in the series with Plasmopara viticola (setting [4]), 75%.

For `CS(=O)(=O)Oc1cccc(Cl)c1C1CC(c2csc(C3CCN(C(=O)Cn4nc(C(F)F)cc4C(F)F)CC3)n2)=NO1` (single isomer, unassigned) [Form A, 2-{3-[2-(1-{[3,5-bis(difluoromethyl)-1H-pyrazol-1-yl]acetyl}piperidin-4-yl)-1,3-thiazol-4-yl]-4,5-dihydro-1,2-oxazol-5-yl}-3-chlorophenylmethanesulphonate, reference compound], the Efficacy in % in the series on Phytophthora infestans (setting [2]) amounted to 0%; with Phytophthora infestans (setting [3]), 15%; with Phytophthora infestans (setting [4]), 40%; in the series with Plasmopara viticola (setting [2]), 0%; in the series on Plasmopara viticola (setting [3]), 6%; with Plasmopara viticola (setting [4]), 35%.
